# Measurements published in US20020160008A1, “TREATMENT OF DIABETES” (priority 1994, published 2002).
# Entries after “also recorded” stand apart in the source; their conditions may differ.
# Key:
# [1] = Intravenous glucose infusion with intravenous GLIP in remission phase Type I diabetes (Example 2); format: in vivo, human; settings: IV GLIP 1.2 pm/kg/min for 60 min with IV glucose 20 g over 60 min, FIG. 2
# Description: Four subjects with remission phase Type I diabetes were studied during intravenous glucose infusion. Subjects prepared for the tests as described in Example 1, but received an intravenous infusion of glucose (20 g over 60 min. constant rate)instead of the Sustacal meal. […] Blood levels of glucose and C-peptide were monitored as in Example 1.
# [2] = Sustacal meal with intravenous GLIP infusion 1.2 pm/kg/min in remission phase Type I diabetes (Example 1); format: in vivo, human; settings: IV GLIP 1.2 pm/kg/min for 120 min after Sustacal meal
# Description: 7 subjects with remission phase Type I diabetes were studied after ingestion of a standardised meal of Sustacal (Upjohn) (delivering […]). Subjects continued their normal insulin treatment programme on the day prior to the test and, on the day of the test, omitted their morning insulin injection and arrived fasting at 8:00 am. […] Infusion was continued for 120 minutes. Blood levels of glucose, C-peptide, gastrin, glucagon and HPP were monitored by standard radioimmunoassay methods in samples taken before and at intervals during the study, up to 180 minutes. On another test day, subjects were given the Sustacal meal alone and the same analytes were similarly monitored.
# [3] = Sustacal meal preceded by subcutaneous GLIP injection in Type I diabetic subjects (Example 5); format: in vivo, human; settings: Type I diabetics, 100 μg GLIP subcutaneously before Sustacal meal
# Description: 7 Type I diabetic subjects were studied.
# [4] = Sustacal meal with GLIP infusion 0.75 pm/kg/min in remission phase Type I diabetes (Example 3); format: in vivo, human; settings: GLIP 0.75 pmol/kg/min for 120 min with Sustacal meal, versus saline infusion; FIG. 3
# Description: The test was conducted as described in Example 1 and blood glucose and C-peptide levels were measured. On a further test day, the subjects were studied during saline infusion after a similar Sustacal meal.
# [5] = 50 μg GLIP plus 5 units insulin (half the usual dose) subcutaneously before Sustacal meal; one subject; FIG. 6 Panel A
# Description: One Type 1 diabetic subject was given GLIP along with insulin and the effects on post-prandial glycaemia observed. […] Blood levels of GLIP were monitored by a standard radioimmunoassay method.
# [6] = Sustacal meal preceded by subcutaneous GLIP injection in normal volunteers (Example 4); format: in vivo, human; settings: for delay in increase in blood levels of glucose, HPP, C-peptide and insulin: compared with the first dose
# Description: 7 normal volunteers were studied after ingestion of a Sustacal meal either alone or immediately preceded by a subcutaneous injection of 1.00 μg GLIP.
substance,measurement,setting,value
Glucagon-like peptide 1(7-36)amide [GLIP],control of blood glucose level,[1],improved control of blood glucose level
same,secretion of endogenous insulin,[1],stimulated secretion of endogenous insulin
same,blood levels of C-peptide,[2],prevented a significant increase in blood levels of C-peptide
same,plasma glucagon levels stimulated by the meal,[2],prevented the mean rise in plasma glucagon levels
same,control of blood glucose level after a meal,[2]; FIG. 1 Panel A,excellent control of blood glucose level
same,pancreatic polypeptide (PP) response to meal,[2]; FIG. 1 Panel C,this response was absent during GLIP infusion
same,gastrin response / gastrin levels,[2]; FIG. 1 Panel E,normal gastrin response; also recorded: not significantly affected
same,blood glucose levels compared to control,"[3]; no morning insulin, FIG. 5 Panel A",lowering of blood glucose levels
same,pancreatic polypeptide (HPP) levels,[3]; FIG. 5 Panel D,delayed rise in pancreatic polypeptide (HPP) levels
same,"insulin secretion (C-peptide, insulin)",[3]; FIG. 5 Panels B and C,no enhancement of insulin secretion over control levels
same,C-peptide after meal,[4],rise in C-peptide was similar to the control experiment
same,blood glucose after meal,[4],increase in glucose was less than in the control experiment
same,blood glucose after standard meal (maximum),[5],≤ 8 mM
same,"delay in increase in blood levels of glucose, HPP, C-peptide and insulin",[6]; 50 μg GLIP,proportionally shorter
same,"delay in increase in blood levels of glucose, HPP, C-peptide and insulin",[6]; 200 μg GLIP,longer delays
same,"increase in blood levels of glucose, HPP, C-peptide and insulin","[6]; subcutaneous GLIP (1.00 μg as printed elsewhere in the source) before Sustacal meal, FIG. 4",A delay in increase
